The text below walks through data of patent US20230210871A1 (THE LIMITED COMPANY RESEARCH AND DEVELOPMENT COMPANY …, priority 2017, published 2023).

For this assay, the target named is BSA glycation (Bos taurus, UniProt P02769). The experiment in a line: Determination of antiglycation activity (BSA glycation by glucose, fluorescence of glycated BSA). Particulars: for The average concentration of AGEs in the sample at a given concentration of the drug (Δ %, M ± m): BSA 1 mg/ml, glucose 500 mM, pH 7.4, 24 hours at 60° C. It is filed as biochemical, bovine. Here is the method: The reaction mixture contains solutions of bovine serum albumin (1 mg/ml) and glucose (500 mM) in phosphate buffer (pH=7.4). To prevent bacterial growth, sodium azide in a final concentration of 0.02% is added to the buffer solution. All substances are dissolved in dimethyl sulfoxide (DMSO). […] All experimental samples are incubated for 24 hours at 60° C. At the end of the incubation period, specific fluorescence of glycated bovine serum albumin (BSA) is determined using an F-7000 spectrofluorimeter (Hitachi, Japan) at an excitation wavelength of 370 nm and an emission wavelength of 440 nm.
Chain of BSA glycation (P02769 25-607): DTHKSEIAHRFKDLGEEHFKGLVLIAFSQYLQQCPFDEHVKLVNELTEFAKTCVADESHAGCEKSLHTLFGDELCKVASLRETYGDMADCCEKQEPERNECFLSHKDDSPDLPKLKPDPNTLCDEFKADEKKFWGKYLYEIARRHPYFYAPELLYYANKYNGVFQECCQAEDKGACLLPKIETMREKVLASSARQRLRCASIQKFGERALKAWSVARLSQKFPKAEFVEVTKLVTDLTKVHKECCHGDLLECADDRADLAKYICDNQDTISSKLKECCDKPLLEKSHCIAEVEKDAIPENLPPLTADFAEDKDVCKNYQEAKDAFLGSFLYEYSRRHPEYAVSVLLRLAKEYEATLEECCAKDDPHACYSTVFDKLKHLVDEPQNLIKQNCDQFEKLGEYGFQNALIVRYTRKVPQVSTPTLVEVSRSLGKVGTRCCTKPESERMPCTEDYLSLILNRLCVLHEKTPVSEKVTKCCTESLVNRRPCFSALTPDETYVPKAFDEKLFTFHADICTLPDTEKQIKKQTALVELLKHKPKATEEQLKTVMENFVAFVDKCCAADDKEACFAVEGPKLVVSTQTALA
The calculation of the IC50 indicator is carried out by the method of regression analysis (Table 2).

As a reminder, the IC50 is the midpoint of a concentration-inhibition curve. For the compound `N=C(N)NN` [Aminoguanidine, aminoguanidine], the concentration for half-maximal inhibition (IC50) (calculated by regression analysis) is 765 µM. The “The average concentration of AGEs in the sample at a given concentration of the drug (Δ %, M ± m)” value (shortened to “The average concentration of AGEs … (Δ %, M ± m)”) (drug concentration 3*10^−4 mol) was 50.25 ± 1.08 Δ %; the “The average concentration of AGEs … (Δ %, M ± m)” value (drug concentration 3*10^−5 mol) was 19.14 ± 2.24 Δ %; the “The average concentration of AGEs … (Δ %, M ± m)” value (drug concentration 10^−3 mol) was 58.08 ± 0.72 Δ %; the “The average concentration of AGEs … (Δ %, M ± m)” value (drug concentration 10^−4 mol) is 38.75 ± 1.52 Δ %; the “The average concentration of AGEs … (Δ %, M ± m)” value (drug concentration 10^−5 mol) is listed as 3.53 ± 2.31 Δ %.
